Laboratory results from patent US20070225291A1, “Substituted Pyrazinone Compounds for the Treatment of Inflammation” (Pfizer Inc., priority 2003, published 2007).

Molecular target: T1, IKK-2 (Homo sapiens, UniProt O14920)
T1 construct: made in house; host or cells: baculovirus-infected insect cells (SF9)
T1 sequence (O14920 1-756): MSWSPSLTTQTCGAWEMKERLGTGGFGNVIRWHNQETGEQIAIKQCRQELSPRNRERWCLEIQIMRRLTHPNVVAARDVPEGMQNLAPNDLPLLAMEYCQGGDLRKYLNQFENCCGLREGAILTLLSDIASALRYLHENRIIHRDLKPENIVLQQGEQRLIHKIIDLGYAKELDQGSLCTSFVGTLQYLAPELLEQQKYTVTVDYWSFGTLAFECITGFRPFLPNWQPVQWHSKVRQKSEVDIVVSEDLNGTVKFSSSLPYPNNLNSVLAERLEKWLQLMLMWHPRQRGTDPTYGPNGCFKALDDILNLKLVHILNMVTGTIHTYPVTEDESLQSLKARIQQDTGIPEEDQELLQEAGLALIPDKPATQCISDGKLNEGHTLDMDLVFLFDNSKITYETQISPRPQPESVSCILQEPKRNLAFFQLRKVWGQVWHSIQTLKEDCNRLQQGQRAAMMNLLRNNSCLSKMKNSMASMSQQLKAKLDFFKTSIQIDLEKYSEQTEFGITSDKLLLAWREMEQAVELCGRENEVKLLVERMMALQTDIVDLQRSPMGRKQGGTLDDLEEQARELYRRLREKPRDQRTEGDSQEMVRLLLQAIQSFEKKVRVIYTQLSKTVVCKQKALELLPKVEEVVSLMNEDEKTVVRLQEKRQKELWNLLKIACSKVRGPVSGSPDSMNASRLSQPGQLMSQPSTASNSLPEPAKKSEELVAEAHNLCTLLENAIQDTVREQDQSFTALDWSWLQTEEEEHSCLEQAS
Assay: IKK-2 Resin Enzyme Assay (IKK-2 IC50 determination)
Assay type: biochemical
Conditions: rhIKK-2 homodimer; biotinylated IκBα peptide 5 μM, 1 μM ATP, 25° C., 30 min
Excerpt: cDNAs of human IKK-1 and IKK-2 were amplified by reverse transcriptase-polymerase chain reaction from human placental RNA (Clonetech). hIKK-1 was subcloned into pFastBac HTa (Life Technologies) and expressed as N-terminal His6-tagged fusion protein. The hIKK-2 cDNA was amplified using a reverse oligonucleotide primer which incorporated the peptide sequence for a FLAG-epitope tag at the C-terminus of the IKK-2 coding region (DYKDDDDKD). The hIKK-2:FLAG cDNA was subcloned into the baculovirus vector pFastBac. The rhIKK-2 (S177S, E177E) mutant was constructed in the same vector used for wild type rhIKK-2 using a QuikChange™ mutagenesis kit (Stratagene). Viral stocks of each construct were used to infect insect cells grown in 40L suspension culture. […] Cell lysates were stored at −80° C. until purification of the recombinant proteins was undertaken as described below.
A 10-liter culture of baculovirus-expressing IKK-2 tagged with FLAG peptide was centrifuged and the cell pellet (MOI=0.1 and I=72 hrs) was re-suspended in buffer A. These cells were microfluidized, and centrifuged at 100,000×g for 45 min. Supernatant was passed over a G-25 column equilibrated with Buffer A. Protein peak was collected and incubated with anti-FLAG affinity resin on a rotator overnight in buffer B. The resin was washed in batch with 10-15 bed volumes of buffer C. Washed resin was poured into a column and rhIKK-2 homodimer was eluted using 5 bed volumes of buffer B containing FLAG peptide. 5 mM DTT, 0.1% NP-40 and BSA (concentrated to 0.1% in final amount) was added to the eluted enzyme before concentrating in using an Amicon membrane with a molecular weight cut-off of 30 kDa. Enzyme was aliquoted and stored at −80° C.
IKK-2 kinase activity was measured using a biotinylated IκBα peptide (Gly-Leu-Lys-Lys-Glu-Arg-Leu-Leu-Asp-Asp-Arg-His-Asp-Ser32-Gly-Leu-Asp-Ser36-Met-Lys-Asp-Glu-Glu) (American Peptide Co.). 20 ul of the standard reaction mixture contained 5 μM biotinylated IκBA peptide, 0.1 μCi/reaction [γ-^33P] […] ATP was measured using a Top-Count NXT (Packard).

Row | SMILES | IC50
1 | Nc1nc(-c2ccccc2O)cn(C2CCCNC2)c1=O (stereo not drawn) [Example 1, 3-amino-5-(2-hydroxyphenyl)-1-piperidin-3-ylpyrazin-2(1H)-one] | 1080 nM
2 | Nc1nc(-c2cc(F)ccc2O)cn(C2CCCNC2)c1=O (stereo not drawn) [Example 2, 3-amino-5-(5-fluoro-2-hydroxyphenyl)-1-piperidin-3-ylpyrazin-2(1H)-one] | 903 nM
3 | Nc1nc(-c2ccc(F)cc2O)cn(C2CCCNC2)c1=O (stereo not drawn) [Example 3, 3-amino-5-(4-fluoro-2-hydroxyphenyl)-1-piperidin-3-ylpyrazin-2(1H)-one] | 1790 nM
